A short description of this data set: Pharmacokinetic tests on dogs. In kind it is in vivo. As to the method: In order to confirm the results obtained in vitro, pharmacokinetic tests were carried out on dogs.

Take `C[S+](CC[C@H](N)C(=O)O)C[C@H]1O[C@@H](n2cnc3c(N)ncnc32)[C@H](O)[C@@H]1O.Cc1ccc(S(=O)(=O)[O-])cc1` (stereo partly drawn) [SAMe, S-Adenosyl-Methionine Paratoluene Sulphonate]: under “after administration of tablet”, the “absorption of SAMe” value is listed as “absorbed in the stomach as soon as it is administered” and the “degradation of SAMe” value is recorded as “not degraded”. For the same compound, for the setting “variability between animals”, the “pharmacokinetic profiles of the different dogs” value was “homogeneous and vary very little”.

Source of the values: US20100226980A1, “NOVEL TABLET BASED ON S-ADENOSYL-METHIONINE” (VETOQUINOL, priority 2009, published 2010).
